According to patent US8633315B2, “Substituted hydroxyethyl amine compounds as beta-secretase modulators and methods of use” (Amgen Inc., priority 2007, dated 2014):

What was measured:
BACE1 = BACE1 (Homo sapiens, UniProt P56817); assay: In vitro enzymatic BACE FRET (fluorescence resonance energy transfer) assay; assay type: biochemical
Experimental: In Vitro Enzymatic BACE FRET (Fluorescence Resonance Energy Transfer) Assay (Enzyme Assay Data in Table 1)
The assay buffer used in this screen is 0.05 M acetate, pH 4.2, 10% DMSO final, 100 uM genapol (which is a nonionic detergent, below its Critical Micelle Concentration). […] The assay is effectively started by the addition of FRET substrate (50 nM) and the combination is incubated for one hour. The FRET assay is terminated with by addition of Tris buffer, which raises the pH to neutrality, and the fluorescence is determined. The FRET substrate is a peptide with commercially available fluorophore and quencher, on opposite sides of the BACE cleavage site. Proteolytic cleavage of the FRET substrate releases quenching of fluorescence (excitation […] and emission […]).

[1] = test system: Cells stably expressing Amyloid Precursor Protein (APP); assay: In vitro BACE cell-based assay (HEK cell assay): Aβ40 in conditioned medium by sandwich ELISA; details: Homo sapiens, HEK293, 24 h, Aβ40 in conditioned medium after 24 h incubation
Experimental: In Vitro BACE Cell-Based Assay:
The cell-based assay measures inhibition or reduction of Aβ40 in conditioned medium of test compound treated cells expressing amyloid precursor protein.
Cells stably expressing Amyloid Precursor Protein (APP) were plated at a density of 40K cells/well in 96 well plates (Costar). The cells were cultivated for 24 hours at 37° C. and 5% CO2 in DMEM supplemented with 10% FBS. The test compounds were then added to cells in 10-point dose response concentrations with the starting concentration being either 100 μM or 10 μM. The compounds were diluted from stock solutions in DMSO and the final DMSO concentration of the test compounds on cells was 0.1%. After 24 h of incubation with the test compounds the supernatant conditioned media was collected and the Aβ 40 levels were determined using a sandwich ELISA. The IC50 of the compound was calculated from the percent of control or percent inhibition of Aβ 40 as a function of the concentration of the test compound.
The sandwich ELISA to detect Aβ 40 was performed in 96 well microtiter plates, which were pre-treated with goat anti-rabbit IgG (Pierce). The capture and detecting antibody pair that were used to detect Aβ 40 from cell supernatants were affinity purified pAb40 (Biosource) and biotinylated 6E10 (Signet Labs Inc.), respectively. The optimal concentration for the pAb40 antibody was 3 μg/ml in Superblock/TBS (Pierce) that was supplemented with 0.05% Tween 20 (Sigma). Optimal concentration for the detection antibody 6E10-biotinylated was 0.5 μg/ml in Superblock/TBS (Pierce) that had been supplemented with 2% normal goat serum and 2% normal mouse serum.
Cellular supernatants were incubated with the capture antibody for 3 h at 4° C., followed by 3 wash steps in TBS-tween (0.05%). The detecting antibody incubation was for 2 h at 4° C., again followed by the wash steps as described previously. The final readout of the ELISA is Time-Resolved Fluorescence (counts per minute) using Delfia reagents Streptavidin-Europium and Enhancement solutions (Perkin Elmer) and the Victor 2 multilabel counter (Perkin Elmer).
Of the compounds tested, in-the cell-based assay, data for each of Examples 33-156 is provided in Table 1 and Examples 208-246 are provided in Table 4.

BACE1, sequence (P56817 46-501, species assumed): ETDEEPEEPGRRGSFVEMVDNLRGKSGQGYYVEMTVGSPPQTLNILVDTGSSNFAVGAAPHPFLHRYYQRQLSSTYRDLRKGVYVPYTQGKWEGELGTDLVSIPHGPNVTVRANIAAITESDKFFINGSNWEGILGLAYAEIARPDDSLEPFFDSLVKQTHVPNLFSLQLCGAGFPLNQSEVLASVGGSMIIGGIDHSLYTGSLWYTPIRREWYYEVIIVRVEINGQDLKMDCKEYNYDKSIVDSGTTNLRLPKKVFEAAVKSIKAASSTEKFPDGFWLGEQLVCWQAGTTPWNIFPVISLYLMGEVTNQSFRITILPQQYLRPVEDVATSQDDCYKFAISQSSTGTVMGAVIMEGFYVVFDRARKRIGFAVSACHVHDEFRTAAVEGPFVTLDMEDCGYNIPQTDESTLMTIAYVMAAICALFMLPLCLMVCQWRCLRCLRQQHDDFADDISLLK

Row | Structure (SMILES) | IC50 (BACE1) | IC50 [1]
1 | C=CC[C@H](NC(=O)c1ccc(F)cc1)[C@H](O)CN[C@H]1CC2(CCC2)Oc2ncc(CC(C)(C)C)cc21 [Example 58, N-((1S)-1-((1R)-2-(((4′S)-6′-(2,2-dimethylpropyl)-3′,4′-dihydrospiro[cyclobutane-1,2′-pyrano[2,3-b]pyridin]-4′-yl)amino)-1-hydroxyethyl)-3-buten-1-yl)-4-fluorobenzamide] | 172 nM | 666 nM
2 | C=CC[C@H](NC(=O)c1ccc(F)c(F)c1)[C@H](O)CN[C@H]1CC2(CCC2)Oc2ncc(CC(C)(C)C)cc21 [Example 60, N-((1S)-1-((1R)-2-(((4′S)-6′-(2,2-dimethylpropyl)-3′,4′-dihydrospiro[cyclobutane-1,2′-pyrano[2,3-b]pyridin]-4′-yl)amino)-1-hydroxyethyl)-3-buten-1-yl)-3,4-difluorobenzamide] | 87 nM | 361 nM
3 | C=CC[C@H](NC(=O)c1cc(F)cc(F)c1)[C@H](O)CN[C@H]1CC2(CCC2)Oc2ncc(CC(C)(C)C)cc21 [Example 61, N-((1S)-1-((1R)-2-(((4′S)-6′-(2,2-dimethylpropyl)-3′,4′-dihydrospiro[cyclobutane-1,2′-pyrano[2,3-b]pyridin]-4′-yl)amino)-1-hydroxyethyl)-3-buten-1-yl)-3,5-difluorobenzamide] | 5 nM | 29.1 nM
4 | C=CC[C@H](NC(=O)c1ccc(OC)nc1)[C@H](O)CN[C@H]1CC2(CCC2)Oc2ncc(CC(C)(C)C)cc21 [Example 63, N-((1S)-1-((1R)-2-(((4′S)-6′-(2,2-dimethylpropyl)-3′,4′-dihydrospiro[cyclobutane-1,2′-pyrano[2,3-b]pyridin]-4′-yl)amino)-1-hydroxyethyl)-3-buten-1-yl)-6-(methyloxy)-3-pyridinecarboxamide] | 215 nM | 1400 nM
5 | C=CC[C@H](NC(=O)c1cccnc1OC)[C@H](O)CN[C@H]1CC2(CCC2)Oc2ncc(CC(C)(C)C)cc21 [Example 65, N-((1S)-1-((1R)-2-(((4′S)-6′-(2,2-dimethylpropyl)-3′,4′-dihydrospiro[cyclobutane-1,2′-pyrano[2,3-b]pyridin]-4′-yl)amino)-1-hydroxyethyl)-3-buten-1-yl)-2-(methyloxy)-3-pyridinecarboxamide] | 475 nM | 258 nM
6 | C=CC[C@H](NC(=O)c1cccc(F)c1F)[C@H](O)CN[C@H]1CC2(CCC2)Oc2ncc(CC(C)(C)C)cc21 [Example 69, N-((1S)-1-((1R)-2-(((4′S)-6′-(2,2-dimethylpropyl)-3′,4′-dihydrospiro[cyclobutane-1,2′-pyrano[2,3-b]pyridin]-4′-yl)amino)-1-hydroxyethyl)-3-buten-1-yl)-2,3-difluorobenzamide] | 155 nM | 121 nM
7 | C=CC[C@H](NC(=O)c1ccc(F)cc1F)[C@H](O)CN[C@H]1CC2(CCC2)Oc2ncc(CC(C)(C)C)cc21 [Example 70, N-((1S)-1-((1R)-2-(((4′S)-6′-(2,2-dimethylpropyl)-3′,4′-dihydrospiro[cyclobutane-1,2′-pyrano[2,3-b]pyridin]-4′-yl)amino)-1-hydroxyethyl)-3-buten-1-yl)-2,4-difluorobenzamide] | 264 nM | 526 nM
8 | C=CC[C@H](NC(=O)c1cc(F)ccc1F)[C@H](O)CN[C@H]1CC2(CCC2)Oc2ncc(CC(C)(C)C)cc21 [Example 71, N-((1S)-1-((1R)-2-(((4′S)-6′-(2,2-dimethylpropyl)-3′,4′-dihydrospiro[cyclobutane-1,2′-pyrano[2,3-b]pyridin]-4′-yl)amino)-1-hydroxyethyl)-3-buten-1-yl)-2,5-difluorobenzamide] | 212 nM | 998 nM

The next lines start with the values.

Row | IC50 (BACE1) | IC50 [1] | Structure (SMILES)
9 | 63 nM | 212 nM | C=CC[C@H](NC(C)=O)[C@H](O)CN[C@H]1C[C@]2(CC[C@@H]2O)Oc2ncc(CC(C)(C)C)cc21 [Example 51, N-((1S)-1-((1R)-2-(((1S,2S,4′S)-6′-(2,2-dimethylpropyl)-2-hydroxy-3′,4′-dihydrospiro[cyclobutane-1,2′-pyrano[2,3-b]pyridin]-4′-yl)amino)-1-hydroxyethyl)-3-buten-1-yl)acetamide]
10 | 3400 nM | 7580 nM | C=CC[C@H](NC(=O)COC)[C@H](O)CN[C@H]1CC2(CCC2)Oc2ncc(CC(C)(C)C#N)cc21 [Example 55, N-((1S)-1-((1R)-2-(((4′S)-6′-(2-cyano-2-methylpropyl)-3′,4′-dihydrospiro[cyclobutane-1,2′-pyrano[2,3-b]pyridin]-4′-yl)amino)-1-hydroxyethyl)-3-buten-1-yl)-2-(methyloxy)acetamide]
11 | 125 nM | 392 nM | C=CC[C@H](NC(=O)c1cncc(F)c1)[C@H](O)CN[C@H]1CC2(CCC2)Oc2ncc(CC(C)(C)C)cc21 [Example 56, N-((1S)-1-((1R)-2-(((4′S)-6′-(2,2-dimethylpropyl)-3′,4′-dihydrospiro[cyclobutane-1,2′-pyrano[2,3-b]pyridin]-4′-yl)amino)-1-hydroxyethyl)-3-buten-1-yl)-5-fluoro-3-pyridinecarboxamide]
12 | 131 nM | 228 nM | C=CC[C@H](NC(=O)c1cccnn1)[C@H](O)CN[C@H]1CC2(CCC2)Oc2ncc(CC(C)(C)C)cc21 [Example 57, N-((1S)-1-((1R)-2-(((4′S)-6′-(2,2-dimethylpropyl)-3′,4′-dihydrospiro[cyclobutane-1,2′-pyrano[2,3-b]pyridin]-4′-yl)amino)-1-hydroxyethyl)-3-buten-1-yl)-3-pyridazinecarboxamide]
13 | 125 nM | 349 nM | C=CC[C@H](NC(=O)c1ccccc1)[C@H](O)CN[C@H]1CC2(CCC2)Oc2ncc(CC(C)(C)C)cc21 [Example 59, N-((1S)-1-((1R)-2-(((4′S)-6′-(2,2-dimethylpropyl)-3′,4′-dihydrospiro[cyclobutane-1,2′-pyrano[2,3-b]pyridin]-4′-yl)amino)-1-hydroxyethyl)-3-buten-1-yl)benzamide]
14 | 561 nM | 4980 nM | C=CC[C@H](NC(=O)c1ccc(F)cn1)[C@H](O)CN[C@H]1CC2(CCC2)Oc2ncc(CC(C)(C)C)cc21 [Example 62, N-((1S)-1-((1R)-2-(((4′S)-6′-(2,2-dimethylpropyl)-3′,4′-dihydrospiro[cyclobutane-1,2′-pyrano[2,3-b]pyridin]-4′-yl)amino)-1-hydroxyethyl)-3-buten-1-yl)-5-fluoro-2-pyridinecarboxamide]
15 | 371 nM | 2580 nM | C=CC[C@H](NC(=O)c1cccc(F)c1)[C@H](O)CN[C@H]1CC2(CCC2)Oc2ncc(CC(C)(C)C)cc21 [Example 64, N-((1S)-1-((1R)-2-(((4′S)-6′-(2,2-dimethylpropyl)-3′,4′-dihydrospiro[cyclobutane-1,2′-pyrano[2,3-b]pyridin]-4′-yl)amino)-1-hydroxyethyl)-3-buten-1-yl)-3-fluorobenzamide]
16 | 179 nM | 71 nM | C=CC[C@H](NC(=O)c1ccc(F)nc1)[C@H](O)CN[C@H]1CC2(CCC2)Oc2ncc(CC(C)(C)C)cc21 [Example 66, N-((1S)-1-((1R)-2-(((4′S)-6′-(2,2-dimethylpropyl)-3′,4′-dihydrospiro[cyclobutane-1,2′-pyrano[2,3-b]pyridin]-4′-yl)amino)-1-hydroxyethyl)-3-buten-1-yl)-6-fluoro-3-pyridinecarboxamide]
17 | 199 nM | 517 nM | C=CC[C@H](NC(=O)c1cccnc1F)[C@H](O)CN[C@H]1CC2(CCC2)Oc2ncc(CC(C)(C)C)cc21 [Example 67, N-((1S)-1-((1R)-2-(((4′S)-6′-(2,2-dimethylpropyl)-3′,4′-dihydrospiro[cyclobutane-1,2′-pyrano[2,3-b]pyridin]-4′-yl)amino)-1-hydroxyethyl)-3-buten-1-yl)-2-fluoro-3-pyridinecarboxamide]
18 | 271 nM | 709 nM | C=CC[C@H](NC(=O)c1cncnc1)[C@H](O)CN[C@H]1CC2(CCC2)Oc2ncc(CC(C)(C)C)cc21 [Example 68, N-((1S)-1-((1R)-2-(((4′S)-6′-(2,2-dimethylpropyl)-3′,4′-dihydrospiro[cyclobutane-1,2′-pyrano[2,3-b]pyridin]-4′-yl)amino)-1-hydroxyethyl)-3-buten-1-yl)-5-pyrimidinecarboxamide]
